Results from patent US7855290B2, “Pyridine derivatives and pyrimidine derivatives (3)” (Eisai R&D Management Co., Ltd., priority 2005, dated 2010).

The compounds below were run against T1, HGFR (Homo sapiens, UniProt P08581) (assay: Inhibitory activity against the HGFR autophosphorylation using ELISA (MKN-45 cells)). Conditions: 1 hr with test substance.
T1 construct: endogenous in cells; host or cells: MKN-45 human gastric cancer cells
Assay type: cell-based
Method: Human gastric cancer cells (MKN-45) were suspended in a 1% FBS-containing RPMI1640 medium (purchased from Sigma). The cell suspension (1×10^5 cells/ml) was put in a 96-well plate for cell culture (purchased from NUNC, Production No. 167008) at 0.1 ml/well, and then cultured in a 5% CO2 incubator (37° C.) overnight. After the culture, from each well was removed the supernatant, followed by adding 0.05 ml of a 1% FBS-containing RPMI1640 medium. Then, the well was supplied with 0.05 ml of the test substance dissolved in dimethyl sulfoxide (diluted with a 1% FBS-containing RPMI1640 medium), followed by culturing in a 5% CO2 incubator (37° C.) for 1 hr. From each well was removed the supernatant, and each well was washed with 150 μl of PBS, followed by adding 100 μl of a lysis buffer (50 mM Hepes (pH 7.4), 150 mM NaCl, 10% (v/v) glycerol, 1% Triton X-100, 1.5 mM MgCl2, 1 mM EDTA (pH 8.0), 100 mM NaF, 1 mM PMSF, 10 μg/ml Aprotinin, 50 μg/ml Leupeptin, 1 μg/ml Pepstatin A and 1 mM Na3VO4). The plate was shaken at 4° C. for 1 hr to prepare the cell extract.
To a 96-well plate for ELISA (purchased from COSTAR, Production No. 3369) was added 50 μl of 60 mM bicarbonate buffer (pH 9.6) containing 50 μg/ml of an anti-phosphotyrosine antibody (PY20, purchased from Transduction Laboratory, Production No. P-11120). The plate was incubated at 4° C. overnight.
Each well of the plate prepared in 2. was washed three times with 200 μl of PBS, and supplied with 150 μl of 3% BSA/PBS, followed by incubating at room temperature for 2 hrs. Each well was washed three times with 200 μl of PBS, and supplied with 50 μl of the above cell extract, followed by incubating at 4° C. overnight. After the incubation, each well was washed three times with 250 μl of a washing solution (0.1% BSA, 20 mM Tris-HCl (pH 7.6), 137 mM NaCl, and 0.05% Tween-20), and supplied with 70 μl of anti-HGFR antibody (h-Met(C-12), purchased from Santa Cruz, Production No. sc-10) 2,000-fold diluted with a reaction solution (1% BSA, 20 mM Tris-HCl (pH 7.6), 137 mM NaCl and 0.05% Tween-20), followed by incubating at room temperature for 1 hr. The well was washed three times with 250 μl of the washing solution, and supplied with 70 μl of peroxidase-labelled anti-rabbit IgG antibody (purchased from Cell Signaling, Production No. 7074) 2,000-fold diluted with the reaction solution, followed by incubating at room temperature for 1 hr. Each well was washed three times with 250 μl of the washing solution, and supplied with 70 μl of TMB Membrane Peroxidase Substrate (purchased from Funakoshi, Production No. 50-5077-03), followed by incubating at room temperature for 10 min. Each well was supplied with 70 μl of 1 M phosphoric acid, and using the Plate Reader MTP-500 (Corona Electric), the absorbance of the well was instantly determined at a measurement wavelength of 450 nm. While defining the absorbance of a well supplied with the cell extract having no test substance as 100% HGFR autophosphorylation activity, and the absorbance of a well supplied with 50 μl of the lysis buffer as 0% HGFR autophosphorylation activity, the HGFR autophosphorylation activity (%) was calculated for each well.

T1 sequence (P08581 25-1390): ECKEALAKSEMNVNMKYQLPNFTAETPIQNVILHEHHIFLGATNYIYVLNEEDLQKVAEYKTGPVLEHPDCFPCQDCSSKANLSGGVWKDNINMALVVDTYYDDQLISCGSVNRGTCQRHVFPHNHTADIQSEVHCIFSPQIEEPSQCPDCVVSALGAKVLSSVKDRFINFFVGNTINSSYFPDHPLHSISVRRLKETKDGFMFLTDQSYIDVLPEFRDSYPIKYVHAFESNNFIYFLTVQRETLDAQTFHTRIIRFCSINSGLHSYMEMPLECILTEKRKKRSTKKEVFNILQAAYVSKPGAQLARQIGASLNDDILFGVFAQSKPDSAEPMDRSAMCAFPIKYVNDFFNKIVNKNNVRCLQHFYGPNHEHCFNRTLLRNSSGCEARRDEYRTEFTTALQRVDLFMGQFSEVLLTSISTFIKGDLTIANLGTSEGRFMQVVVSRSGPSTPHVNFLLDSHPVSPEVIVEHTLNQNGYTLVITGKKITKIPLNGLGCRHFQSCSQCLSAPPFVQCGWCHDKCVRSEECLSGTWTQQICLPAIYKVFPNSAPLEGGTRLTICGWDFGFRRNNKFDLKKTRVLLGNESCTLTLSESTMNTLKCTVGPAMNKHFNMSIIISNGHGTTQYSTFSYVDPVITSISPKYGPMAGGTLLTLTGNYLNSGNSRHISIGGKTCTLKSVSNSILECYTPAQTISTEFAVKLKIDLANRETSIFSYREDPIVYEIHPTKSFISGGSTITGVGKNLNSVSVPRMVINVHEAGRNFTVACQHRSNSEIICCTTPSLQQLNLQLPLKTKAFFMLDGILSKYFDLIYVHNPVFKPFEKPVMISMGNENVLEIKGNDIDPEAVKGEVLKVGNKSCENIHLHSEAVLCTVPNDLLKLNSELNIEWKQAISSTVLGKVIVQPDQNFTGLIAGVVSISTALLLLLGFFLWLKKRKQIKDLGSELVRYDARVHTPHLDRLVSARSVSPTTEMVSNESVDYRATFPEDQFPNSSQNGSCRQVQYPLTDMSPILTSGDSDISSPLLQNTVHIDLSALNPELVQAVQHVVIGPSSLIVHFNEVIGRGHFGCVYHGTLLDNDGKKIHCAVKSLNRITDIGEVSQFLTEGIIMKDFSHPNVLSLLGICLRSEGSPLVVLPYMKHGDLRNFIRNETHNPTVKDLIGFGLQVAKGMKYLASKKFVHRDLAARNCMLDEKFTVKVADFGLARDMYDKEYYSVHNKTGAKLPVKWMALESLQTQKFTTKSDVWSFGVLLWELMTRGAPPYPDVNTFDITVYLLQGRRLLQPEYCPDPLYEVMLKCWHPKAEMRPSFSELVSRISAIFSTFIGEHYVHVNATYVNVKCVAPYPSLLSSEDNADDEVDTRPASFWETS

Question: Which IC50 does the source give for `CN1CCC(N2CCN(C(=O)Nc3cc(Oc4ccc(NC(=O)C5(C(=O)Nc6ccc(F)cc6)CC5)cc4F)ccn3)CC2)CC1` [Example 19, N-(3-Fluoro-4-{[2-({[4-(1-methylpiperidin-4-yl)piperazin-1-yl]carbonyl}amino)pyridin-4-yl]oxy}phenyl)-N′-(4-fluorophenyl)cyclopropane-1,1-dicarboxamide] here?
Answer: Its IC50 is 23 nM.

Question: For `CN1CCN(C(=O)Nc2cc(Oc3cc(F)c(NC(=O)C4(C(=O)Nc5ccc(F)cc5)CC4)cc3F)ccn2)CC1` [Example 104, N-{2,5-Difluoro-4-[(2-{[(4-methylpiperazin-1-yl)carbonyl]amino}pyridin-4-yl]oxy}phenyl)-N′-(4-fluorophenyl)cyclopropane-1,1-dicarboxamide], which IC50 is on record?
Answer: The IC50 was 15 nM.

Question: For `O=C(Nc1cc(Oc2ccc(NC(=O)C3(C(=O)Nc4ccc(F)cc4)CC3)cc2)ccn1)N1CCOCC1` [Example 68, N-(4-Fluorophenyl)-N′-[4-({2-[(morpholin-4-ylcarbonyl)amino]pyridin-4-yl}oxy)phenyl]cyclopropane-1,1-dicarboxamide], which IC50 is on record?
Answer: Its IC50 is 71 nM.

Question: `CN1CCC(N(C)C(=O)Nc2cc(Oc3ccc(NC(=O)C4(C(=O)Nc5ccc(F)cc5F)CC4)c(F)c3)ccn2)CC1` [Example 56, N-(2,4-Difluorophenyl)-N′-(2-fluoro-4-{[2-({[methyl(1-methylpiperidin-4-yl)amino]carbonyl}amino)pyridin-4-yl]oxy}phenyl)cyclopropane-1,1-dicarboxamide] was tested. Which IC50 did it give?
Answer: Its IC50 is 41 nM.

Question: For `CN(C)CCN1CCC(N(C)C(=O)Nc2cc(Oc3ccc(NC(=O)C4(C(=O)Nc5ccc(F)cc5)CC4)cc3)ccn2)CC1` [Example 39, N-(4-{[2-({[{1-[2-(Dimethylamino)ethyl]piperidin-4-yl}(methyl)amino]carbonyl}amino)pyridin-4-yl]oxy}phenyl)-N′-(4-fluorophenyl)cyclopropane-1,1-dicarboxamide], which IC50 is on record?
Answer: The IC50 was 16 nM.

Question: How did the IC50 turn out when `O=C(Nc1cc(Oc2ccc(NC(=O)C3(C(=O)Nc4ccc(F)cc4)CC3)cc2F)ccn1)N1CC(O)C1` [Example 80, N-{3-Fluoro-4-[(2-{[(3-hydroxyazetidin-1-yl)carbonyl]amino}pyridin-4-yl)oxy]phenyl}-N′-(4-fluorophenyl)cyclopropane-1,1-dicarboxamide] was run?
Answer: The IC50 was 14 nM.

Question: For `CN(C)[C@H]1CCN(C(=O)Nc2cc(Oc3ccc(NC(=O)C4(C(=O)Nc5ccc(F)cc5)CC4)cc3F)ccn2)C1` [Example 24, N-(4-{[2-({[(3S)-3-(Dimethylamino)pyrrolidin-1-yl]carbonyl}amino)pyridin-4-yl]oxy}-3-fluorophenyl)-N′-(4-fluorophenyl)cyclopropane-1,1-dicarboxamide], which IC50 is on record?
Answer: The IC50 was 27 nM.

Question: For `O=C(Nc1cc(Oc2ccc(NC(=O)C3(C(=O)Nc4ccc(F)cc4)CC3)c(F)c2)ccn1)N1CCC(N2CCNCC2)CC1` [Example 71, N-(4-Fluorophenyl)-N′-{2-fluoro-4-[(2-{[(4-piperazin-1-ylpiperidin-1-yl)carbonyl]amino}pyridin-4-yl)oxy]phenyl}cyclopropane-1,1-dicarboxamide], which IC50 is on record?
Answer: The IC50 was 11 nM.

Question: `O=C(Nc1cc(Oc2ccc(NC(=O)C3(C(=O)Nc4ccc(F)cc4)CC3)cc2F)ccn1)N1CCCC1` [Example 66, N-(4-Fluorophenyl)-N′-[3-fluoro-4-({2-[(pyrrolidin-1-ylcarbonyl)amino]pyridin-4-yl}oxy)phenyl]cyclopropane-1,1′-dicarboxamide] was tested. Which IC50 did it give?
Answer: Its IC50 is 13 nM.

Question: For `COC1CN(C(=O)Nc2cc(Oc3ccc(NC(=O)C4(C(=O)Nc5ccc(F)cc5)CC4)c(F)c3)ccn2)C1` [Example 78, N-[2-Fluoro-4-[(2-{[(3-methoxyazetidin-1-yl)carbonyl]amino}pyridin-4-yl)oxy]phenyl}-N′-(4-fluorophenyl)cyclopropane-1,1-dicarboxamide], which IC50 is on record?
Answer: Its IC50 is 15 nM.

Question: How did the IC50 turn out when `O=C(Nc1cc(Oc2ccc(NC(=O)C3(C(=O)Nc4ccc(F)cc4)CC3)c(F)c2)ccn1)N1CC(O)C1` [Example 72, N-{2-Fluoro-4-[(2-{[(3-hydroxyazetidin-1-yl)carbonyl]amino}pyridin-4-yl)oxy]phenyl}-N′-(4-fluorophenyl)cyclopropane-1,1-dicarboxamide] was run?
Answer: The IC50 was 10 nM.

Question: With `CCN1CCC(N(C)C(=O)Nc2cc(Oc3ccc(NC(=O)C4(C(=O)Nc5ccccc5)CC4)c(F)c3)ccn2)CC1` [Example 60, N-(4-{[2-({[(1-Ethylpiperidin-4-yl)(methyl)amino]carbonyl}amino)pyridin-4-yl]oxy}-2-fluorophenyl)-N′-phenylcyclopropane-1′-dicarboxamide] as the compound, how does the IC50 read?
Answer: Its IC50 is 8 nM.

Question: `CN(C)CC1CN(C(=O)Nc2cc(Oc3ccc(NC(=O)C4(C(=O)Nc5ccc(F)cc5)CC4)c(F)c3)ccn2)C1` [Example 77, N-[4-({2-[({3-[(Dimethylamino)methyl]azetidin-1-yl}carbonyl)amino]pyridin-4-yl}oxy)-2-fluorophenyl]-N′-(4-fluorophenyl)cyclopropane-1,1-dicarboxamide] was tested. Which IC50 did it give?
Answer: Its IC50 is 13 nM.

Question: For `CN1CC(N2CCN(C(=O)Nc3cc(Oc4ccc(NC(=O)C5(C(=O)Nc6ccc(F)cc6)CC5)c(F)c4)ccn3)CC2)C1` [Example 17], which IC50 is on record?
Answer: Its IC50 is 15 nM.

Question: How did the IC50 turn out when `CN1CCN(C(=O)Nc2cc(Oc3ccc(NC(=O)C4(C(=O)Nc5ccc(F)cc5)CC4)c(F)c3)ccn2)CC1` [Example 64, N-{2-Fluoro-4-[(2-{[(1-methylpiperazin-4-yl)carbonyl]amino}pyridin-4-yl)oxy]phenyl}-N′-(4-fluorophenyl)cyclopropane-1,1-dicarboxamide] was run?
Answer: Its IC50 is 20 nM.

Question: For `O=C(Nc1cc(Oc2ccc(NC(=O)C3(C(=O)Nc4ccc(F)cc4)CC3)cc2F)ncn1)N1CCOCC1` [Example 35, N-[3-Fluoro-4-({6-{(morpholin-4-ylcarbonyl)amino}pyrimidin-4-yl}oxy)phenyl]-N′-(4-fluorophenyl)cyclopropane-1,1-dicarboxamide], which IC50 is on record?
Answer: The IC50 was 120 nM.

Question: Which IC50 does the source give for `CN(C)C1CCN(C(=O)Nc2cc(Oc3cc(F)c(NC(=O)C4(C(=O)Nc5ccc(F)cc5)CC4)cc3F)ncn2)CC1` [Example 102, N-(4-{[4-({[4-(Dimethylamino)piperidin-1-yl]carbonyl}amino)pyrimidin-6-yl]oxy}-2,5-difluorophenyl)-N′-(4-fluorophenyl)cyclopropane-1,1-dicarboxamide] here?
Answer: The IC50 was 41 nM.

Question: How did the IC50 turn out when `CN(C)[C@@H]1CCN(C(=O)Nc2cc(Oc3ccc(NC(=O)C4(C(=O)Nc5ccc(F)cc5)CC4)cc3)ccn2)C1` [Example 42, N-(4-{[2-({[(3R)-3-(Dimethylamino)pyrrolidin-1-yl]carbonyl}amino)pyridin-4-yl]oxy}phenyl)-N′-(4-fluorophenyl)cyclopropane-1,1-dicarboxamide] was run?
Answer: The IC50 was 42 nM.

Question: `CCN(CC)CCCN(C)C(=O)Nc1cc(Oc2ccc(NC(=O)C3(C(=O)Nc4ccc(F)cc4)CC3)cc2F)ccn1` [Example 44, N-(4-{[2-({[[3-(Diethylamino)propyl](methyl)amino]carbonyl}amino)pyridin-4-yl]oxy}-3-fluorophenyl)-N′-(4-fluorophenyl)cyclopropane-1,1-dicarboxamide] was tested. Which IC50 did it give?
Answer: Its IC50 is 80 nM.

Question: For `CN1CCN(C2CCN(C(=O)Nc3cc(Oc4cc(F)c(NC(=O)C5(C(=O)Nc6ccc(F)cc6)CC5)cc4F)ncn3)CC2)CC1` [Example 101, N-(2,5-Difluoro-4-{[4-({[4-(4-methylpiperazin-1-yl)piperidin-1-yl]carbonyl}amino)pyrimidin-6-yl]oxy}phenyl)-N′-(4-fluorophenyl)cyclopropane-1,1-dicarboxamide], which IC50 is on record?
Answer: The IC50 was 15 nM.

Question: `CN1CCC(N(C)C(=O)Nc2cc(Oc3ccc(NC(=O)C4(C(=O)Nc5ccccc5F)CC4)c(F)c3)ccn2)CC1` [Example 57, N-(2-Fluoro-4-{[2-({[methyl(1-methylpiperidin-4-yl)amino]carbonyl}amino)pyridin-4-yl]oxy}phenyl)-N′-(2-fluorophenyl)cyclopropane-1,1-dicarboxamide] was tested. Which IC50 did it give?
Answer: Its IC50 is 82 nM.

Question: How did the IC50 turn out when `CCN(CC)CCCNC(=O)Nc1cc(Oc2ccc(NC(=O)C3(C(=O)Nc4ccc(F)cc4)CC3)c(Cl)c2)ccn1` [Example 43, N-[2-Chloro-4-({2-[({[3-(diethylamino)propyl]amino}carbonyl)amino]pyridin-4-yl}oxy)phenyl]-N′-(4-fluorophenyl)cyclopropane-1,1-dicarboxamide] was run?
Answer: Its IC50 is 330 nM.
